From the NIST ThermoML archive (doi:10.1021/je034102r)

Assay: molar heat capacity at constant pressure
Settings: 101.33 kPa, Liquid, heat bridge-scanning calorimeter

CCCCn1cc[n+](C)c1.F[P-](F)(F)(F)(F)F [1-butyl-3-methylimidazolium hexafluorophosphate]
Settings	molar heat capacity at constant pressure [J/K/mol]
466.32 K	494.48
466.46 K	494.76
466.59 K	495.05
466.73 K	495.9
466.87 K	495.33
467 K	495.33
467.14 K	495.33
467.28 K	495.05
467.41 K	495.33
467.55 K	495.05
467.84 K	495.05
467.98 K	495.33
468.12 K	495.33
468.25 K	495.9
468.39 K	495.9
468.52 K	495.61
468.66 K	495.61
468.8 K	495.33
468.93 K	495.05
469.25 K	495.33
469.38 K	495.33
469.52 K	495.33
469.66 K	495.33
469.79 K	495.61
469.93 K	495.61
470.07 K	495.61
470.2 K	495.61
470.34 K	496.18
470.48 K	495.61
470.61 K	495.9
470.91 K	495.9
471.04 K	496.18
471.18 K	496.47
471.32 K	496.47
471.45 K	496.47
471.59 K	496.47
471.73 K	496.47
471.87 K	496.18
472 K	496.47
472.3 K	496.47
472.44 K	496.47
472.58 K	496.47
472.71 K	496.75
472.85 K	496.75
472.99 K	496.47
473.12 K	496.47
473.26 K	496.47
473.4 K	496.47
473.53 K	496.47
473.67 K	497.03
473.97 K	498.17
474.1 K	497.6
474.24 K	497.32
474.38 K	497.32
474.51 K	497.6
474.65 K	497.32
474.79 K	497.03
474.92 K	496.75
475.06 K	496.75
475.36 K	496.75
475.5 K	497.03
475.63 K	496.75
475.78 K	497.03
475.92 K	497.03
476.06 K	497.03
476.19 K	497.03
476.33 K	497.03
476.47 K	497.32
476.61 K	497.32
476.74 K	497.32
477.04 K	497.6
477.18 K	497.32
477.31 K	497.6
477.45 K	498.17
477.59 K	497.89
477.72 K	497.89
477.86 K	497.89
478 K	497.6
478.13 K	497.6
478.44 K	497.6
478.57 K	497.6
478.71 K	497.6
478.85 K	497.6
478.98 K	497.6
479.12 K	497.89
479.26 K	497.6
479.39 K	497.6
479.53 K	497.89
479.67 K	497.89
479.81 K	498.17
480.1 K	498.17
480.24 K	498.17
480.38 K	497.89
480.51 K	498.17
480.65 K	498.17
480.79 K	497.89
480.92 K	498.17
481.06 K	498.17
481.2 K	498.17
481.5 K	498.46
481.64 K	498.74
481.78 K	499.31
481.91 K	498.74
482.05 K	498.46
482.2 K	498.46
482.34 K	498.46
482.47 K	498.46
482.61 K	498.46
482.75 K	498.46
482.89 K	498.46
483.19 K	498.46
483.32 K	498.74
483.46 K	499.02
483.6 K	499.02
483.74 K	499.31
483.87 K	499.31
484.01 K	499.31
484.15 K	500.16
484.29 K	500.16
484.59 K	499.59
484.72 K	499.59
484.86 K	499.31
485 K	499.59
485.14 K	499.88
485.27 K	499.59
485.41 K	499.88
485.55 K	499.59
485.69 K	500.16
485.83 K	500.45
485.96 K	501.01
486.26 K	500.73
486.4 K	501.01
486.53 K	501.01
486.67 K	500.45
486.81 K	500.16
486.95 K	500.16
487.08 K	500.45
487.22 K	501.01
487.36 K	500.73
487.66 K	502.15
487.8 K	501.58
487.94 K	501.3
488.07 K	501.01
488.21 K	501.01
488.35 K	501.87
488.48 K	501.3
488.62 K	501.01
488.77 K	500.73
488.91 K	501.3
489.05 K	501.58
489.34 K	501.01
489.48 K	501.58
489.62 K	501.3
489.75 K	501.87
489.89 K	501.3
490.03 K	501.01
490.16 K	501.3
490.3 K	501.87
490.44 K	501.01
490.74 K	500.73
490.88 K	501.3
491.02 K	501.01
491.15 K	501.01
491.29 K	501.01
491.43 K	501.01
491.56 K	500.73
491.7 K	501.3
491.84 K	501.58
491.98 K	501.3
492.11 K	501.01
492.41 K	501.3
492.55 K	502.15
492.69 K	501.87
492.82 K	502.43
492.96 K	502.72
493.1 K	502.15
493.23 K	501.87
493.37 K	501.58
493.51 K	501.3
493.81 K	501.3
493.95 K	502.43
494.09 K	503.29
494.22 K	502.72
494.36 K	502.72
494.5 K	502.72
494.64 K	502.72
494.77 K	502.72
494.91 K	502.72
495.05 K	502.72
495.2 K	503.29
495.5 K	502.72
495.63 K	502.43
495.77 K	502.43
495.91 K	502.43
496.05 K	502.72
496.18 K	503.86
496.32 K	504.14
496.46 K	504.14
496.6 K	503.29
496.9 K	505.56
497.04 K	506.13
497.17 K	506.13
497.31 K	504.99
497.45 K	504.42
497.58 K	504.14
497.72 K	503.57
497.86 K	503.57
498 K	503.57
498.13 K	503.29
498.27 K	503.86
498.57 K	504.71
498.7 K	504.42
498.84 K	505.84
498.98 K	507.27
499.11 K	506.98
499.25 K	505.84
499.39 K	504.99
499.52 K	504.71
499.66 K	504.42
499.96 K	504.14
500.1 K	504.42
500.24 K	504.42
500.37 K	504.42
500.51 K	504.71
500.65 K	505.56
500.79 K	506.13
500.92 K	506.41
501.06 K	506.13
501.2 K	506.41
501.34 K	506.7
501.63 K	505.84
501.78 K	506.98
501.92 K	507.55
502.06 K	506.41
502.19 K	505.84
502.33 K	505.56
502.47 K	505.28
502.61 K	504.99
502.74 K	505.28
503.05 K	505.28
503.18 K	504.99
503.32 K	505.28
503.46 K	505.28
503.59 K	505.28
503.73 K	505.84
503.87 K	505.84
504.01 K	505.84
504.14 K	506.13
504.28 K	507.55
504.42 K	505.84
504.71 K	505.84
504.85 K	505.84
504.99 K	506.13
505.13 K	506.41
505.26 K	506.7
505.4 K	506.41
505.54 K	506.98
505.68 K	506.98
505.81 K	505.84
506.11 K	505.84
506.25 K	506.13
506.39 K	507.83
506.53 K	507.27
506.66 K	506.98
506.8 K	506.98
506.94 K	506.41
507.08 K	506.13
507.21 K	506.13
507.35 K	506.7
507.49 K	506.98
507.78 K	507.27
507.92 K	508.12
508.06 K	508.12
508.21 K	508.12
508.35 K	507.27
508.48 K	506.98
508.62 K	506.98
508.76 K	506.98
508.9 K	507.27
509.2 K	506.7
509.33 K	506.98
509.47 K	507.83
509.61 K	508.69
509.75 K	509.25
509.88 K	509.25
510.02 K	507.55
510.16 K	506.7
510.29 K	506.13
510.43 K	506.7
510.57 K	507.55
510.86 K	507.83
511 K	507.27
511.14 K	506.7
511.28 K	506.41
511.41 K	505.84
511.55 K	506.41
511.69 K	507.27
511.83 K	506.98
511.96 K	506.41
512.26 K	506.7
512.4 K	507.27
512.54 K	507.55
512.68 K	507.55
512.81 K	507.55
512.95 K	506.98
513.09 K	506.7
513.23 K	506.98
513.36 K	506.98
513.5 K	506.7
513.64 K	506.41
513.93 K	506.13
514.07 K	506.13
514.21 K	506.13
514.35 K	506.41
514.48 K	507.27
514.62 K	507.83
514.77 K	507.83
514.91 K	507.27
515.05 K	506.98
515.35 K	507.55
515.49 K	507.55
515.62 K	506.98
515.76 K	506.98
515.9 K	506.98
516.04 K	507.27
516.18 K	507.27
516.31 K	506.98
516.45 K	506.98
516.59 K	506.98
516.73 K	506.7
517.03 K	507.27
517.16 K	506.98
517.3 K	507.27
517.44 K	506.98
517.58 K	506.98
517.71 K	507.27
517.85 K	506.98
517.99 K	506.98
518.13 K	507.27
518.43 K	508.97
518.57 K	508.12
518.71 K	507.83
518.85 K	507.55
518.98 K	507.83
519.12 K	508.12
519.26 K	508.4
519.4 K	508.4
519.53 K	508.4
519.67 K	508.12
519.81 K	508.12
520.11 K	508.12
520.24 K	508.4
520.38 K	508.97
520.52 K	508.97
520.66 K	509.25
520.79 K	509.54
520.93 K	509.54
521.07 K	509.25
521.22 K	508.97
521.52 K	509.25
521.66 K	509.25
521.8 K	509.25
521.94 K	509.25
522.07 K	509.25
522.21 K	509.54
522.35 K	509.82
522.49 K	510.39
522.62 K	510.39
522.76 K	510.11
522.9 K	510.11
523.2 K	510.11
523.33 K	509.82
523.47 K	509.82
523.61 K	509.82
523.75 K	509.82
523.88 K	510.11
524.02 K	510.39
524.16 K	510.11
524.3 K	509.82
524.6 K	509.82
524.74 K	510.11
524.87 K	510.11
